According to US20070054804A1, “Use of fungicides for disinfecting cereal seed” (BAYER CROPSCIENCE AKTIENGESELLSCHAFT, priority 2003, published 2007):

Tested on: Fusarium nivale
Test: Fusarium nivale test (wheat)/seed treatment
Type: in vivo
Settings: seed dressing of infected wheat seed, evaluated three weeks after sowing, 0% = control, 100% = no infection
Method: Fusarium nivale Test (Wheat)/Seed Treatment The active compounds or the active compound combination are/is applied using commercially available liquid seed dressings of the individual active compounds or the active compound combination. For seed dressing, the infected seed is shaken with the seed dressing in question in a closed plastic container for 3 minutes. For each test, in two seed trays in each case 100 wheat corns are sown at a depth of 3 cm in sand and covered with a layer of fine particulate clay. The seed trays are then placed in a greenhouse at a temperature of about 10° C. and a relative atmospheric humidity of 95% and exposed to light for 15 hours per day. Three weeks after sowing, the plants are evaluated for symptoms. The efficacy is expressed in %. 0% means an efficacy which corresponds to that of the control, whereas an efficacy of 100% means that no infection is observed.

Compound | Efficacy in % (3 g active compound per 100 kg of seed) | Efficacy in % (5 g active compound per 100 kg of seed)
CC(C)(C)C(O)(CCc1ccc(Cl)cc1)Cn1cncn1 (centres unmarked) [tebuconazole] | 11% | –
OC(Cc1ccccc1Cl)(Cn1nc[nH]c1=S)C1(Cl)CC1 (centres unmarked) [prothioconazole, 2-[2-(1-chlorocyclopropyl)-3-(2-chlorophenyl)-2-hydroxypropyl]-2,4-dihydro[1,2,4]-triazole-3-thione] | – | 57%
